{"source": "patent US10982196B2", "about": "“Immunotherapy targeting intracellular pathogens” (LIFE SCIENCES RESEARCH PARTNERS VZW, priority 2008, dated 2021)", "key": {"[1]": {"system": "IDO (indolamine-2,3-dioxygenase)", "assay_type": "cell-based, BALB/c", "settings": "dendritic cells pre-loaded with SEQ ID NO:5 or 7, 8 h co-culture with CD4+ T cells of mice immunised with SEQ ID NO:6 or 8; example written in present tense"}, "dendritic cells [2]": {"system": "dendritic cells", "assay": "Reactive oxygen intermediates in antigen-presenting cells co-cultured with CD4+ T cells expanded with modified ESAT-6 epitope, Facs (DCFDA)", "assay_type": "cell-based, C57Bl/6 mice", "settings": "dendritic cells loaded with SEQ ID NO:3, 2 h co-culture with CD4+ T cells expanded with SEQ ID NO:4; example written in present tense"}, "[3]": {"system": "induced nitric oxide synthase", "assay": "Reactive nitrogen intermediates in antigen-presenting cells, RT-PCR for transcripts of nitric oxide synthase", "assay_type": "cell-based, C57Bl/6 mice", "settings": "dendritic cells co-cultured 6 h with CD4+ T cells and peptide of SEQ ID NO:4; example written in present tense"}, "dendritic cells [4]": {"system": "dendritic cells", "settings": "dendritic cells loaded with peptide of SEQ ID NO:1, 2 h co-culture with CD4+ T cell line expanded with the peptide; compared with line expanded with SEQ ID NO:1; FIG. 1", "procedure": "Adenovirus of serotype 5 (Ad.RR5, E1/E3-deleted) was used in these experiments. Thus, 5 μL of a solution containing 2×10^11 viral particles/ml was administered by the intravenous route to 6 weeks old C57Bl/6 mice. Ten days later, the spleen of such mice was recovered and CD4+ T cells purified by magnetic sorting.\nCD4+ T cells obtained from Ad.RR5-immunized mice were cultured in the presence of T lymphocyte-depleted spleen adherent cells used as antigen-presenting cells pre-incubated with either peptide of SEQ ID NO:1 or peptide of SEQ ID NO:2. After two cycles of restimulation, the CD4+ T cell lines were allowed to rest for 10 days. […] The generation of reactive oxygen intermediates (ROI) by dendritic cells was then evaluated after 2 h of co-culture. Dendritic cells were prepared from the spleen of C57Bl/6 mice by sorting on magnetic beads coated with an anti-CD11c specific antibody.\nThus, 10^5 dendritic cells were incubated for 1 h with 10 μM DCFDA, a derivative of fluorescein used as an indicator of ROI generation. […] Fluorescence increases generated by DCFDA oxidation by reactive oxygen intermediates are read in a Facs gated on CD11c(+) cells."}}, "data": [{"sequence": "CGHCDKHIEQYLK (modified Th2R T-cell epitope; (1)..(4) thioreductase motif) [SEQ ID NO:6]", "values": [{"measurement": "expression of IDO in dendritic cells", "setting": "[1]", "value": "induces a reverse signalling leading to expression of IDO"}]}, {"sequence": "CGHCFAGIEAAAS (modified ESAT6 T-cell epitope; (1)..(4) thioreductase motif) [SEQ ID NO:4]", "values": [{"measurement": "production of reactive oxygen intermediates in antigen-presenting cells", "setting": "dendritic cells [2]", "value": "shown to be induced"}, {"measurement": "production of reactive nitrogen intermediates in antigen-presenting cells", "setting": "[3]", "value": "shown to be induced"}]}, {"sequence": "CHGCPTLLYVLFEV (modified T-cell epitope of capsid protein adenovirus serotype 5; (1)..(4) thioreductase motif) [SEQ ID NO:2]", "values": [{"measurement": "ROI produced by dendritic cells", "setting": "dendritic cells [4]", "value": "significantly more ROI"}]}, {"sequence": "CGHCEKKICKMEK (modified T-cell epitope of CSP antigen Plasmodium falciparum; (1)..(4) modified T-cell epitope) [SEQ ID NO:8]", "values": [{"measurement": "expression of IDO in dendritic cells", "setting": "[1]", "value": "induces a reverse signalling leading to expression of IDO"}]}]}
